According to patent US6362341B1, “Benzyl compounds which inhibit leukocyte adhesion mediated by VLA-4” (Athena Neurosciences, Inc., priority 1997, dated 2002):
Non-standard residues stand in square brackets, D forms with d. Residues, ends and D or L forms follow the SMILES beside them. *: point of attachment. Tos = Cc1ccc(S(=O)(=O)*)cc1; Thz = O=C(O)[C@@H]1CSCN1

Tested on: Experimental Autoimmune Encephalomyelitis (EAE) model, motor impairment
Experiment: In vivo evaluation - Experimental Autoimmune Encephalomyelitis (EAE)
Set-up: species or system Lewis rats or Hartley guinea pigs
Details: active = delayed onset of symptoms, e.g. clinical scores no greater than 2 or slowed body weight loss as compared to the control; treatment from Day 8, bid, five days

| Compound | activity in EAE model (delay of onset of symptoms) |
| --- | --- |
| Cc1ccc(S(=O)(=O)N2CCC[C@H]2C(=O)N[C@@H](Cc2ccccc2)C(=O)O)cc1 [Example 3, N-(Toluene-4-sulfonyl)-L-prolyl-L-phenylalanine] (Tos-Pro-Phe-OH) | active |

Tested on: not given
Experiment: not given
Details: not given

| Compound | melting point [°C] |
| --- | --- |
| Cc1ccc(S(=O)(=O)N2CCC[C@H]2C(=O)NC(Cc2ccccc2)C(=O)NCCC(=O)O)cc1 (mixture of isomers) [Example 45, N-(Toluene-4-sulfonyl)-L-prolyl-D,L-phenylalanyl-β-alanine] | 91 to 95 |
| Cc1ccc(S(=O)(=O)N2CCC[C@H]2C(=O)NC(Cc2nc[nH]n2)C(=O)O)cc1 (mixture of isomers) [Example 66, N-(Toluene-4-sulfonyl)-L-prolyl-D,L-β-(1,2,4-triazol-3-yl)alanine] | 153 to 163 |
| O=C(O)[C@H](Cc1ccccc1)NC(=O)[C@@H]1CCCN1S(=O)(=O)c1ccc(Cl)cc1 [Example 10, N-(4-Chlorobenzenesulfonyl)-L-prolyl-L-phenylalanine] | 69 to 71 |
| COC(=O)c1ccccc1S(=O)(=O)N1CCC[C@H]1C(=O)N[C@@H](Cc1ccccc1)C(=O)O [Example 18, N-(2-Methoxycarbonylbenzenesulfonyl)-L-prolyl-L-phenylalanine] | 163 to 165 |
| Cc1ccc(S(=O)(=O)N2CSC[C@H]2C(=O)N[C@@H](Cc2ccccc2)C(=O)O)cc1 [Example 20, N-(Toluene-4-sulfonyl)-L-thiaprolyl-L-phenylalanine] (Tos-[Thz]-Phe-OH) | 60 to 65 |
| O=C(O)[C@H](Cc1ccccc1)NC(=O)[C@@H]1CCCN1S(=O)(=O)c1ccc([N+](=O)[O-])cc1 [Example 27, N-(4-Nitrobenzenesulfonyl)-L-prolyl-L-phenylalanine] | 70 to 80 |
| Cc1ccc(S(=O)(=O)N2CCC[C@H]2C(=O)N[C@@H](Cc2ccccc2)C(=O)NOCc2ccccc2)cc1 [Example 43, N-(Toluene-4-sulfonyl)-L-prolyl-L-phenylalanine N-Benzyloxyamide] | 127 to 130 |
